Experimental data taken from patent US4973576A, “Bisphophonic acid derivatives and pharmaceutical compositions containing the same” (Yamanouchi Pharmaceutical Co., Ltd., priority 1987, dated 1990).
“And” between values parts separate entries of the source, which are not always exact repeats. Equal values may be shown once.

Key:
[1] = test system: hypercalcemia induced by administration of parathyroid hormone (PTH); experiment: Inhibitory effect on hypercalcemia induced by PTH in rats (serum Ca++); type: in vivo, male Wistar rats; conditions: mean ± S.E.
Protocol: Rats of hypercalcemia induced by administration of parathyroid hormone (hereinafter referred to as "PTH") were used, and the decrement of the serum calcium amount by administration of the compound was measured.
30 μg/kg of human 1-34 PTH (manufactured by Peptide Laboratory) which was dissolved in a 0.1% BSA (bovine serum albumin)-containing physiological saline (content of the PTH is 6 μg/ml) was intravenously injected in an amount of 30 μg/kg (5 ml/kg as the solution) to 5-week male Wistar rats which had been fasting for 20 hours. Only 0.1% BSA-containing physiological saline was injected to the normal control group in the same manner. 45 minutes after the PTH injection, the rats were etherized and then subjected to celiotomy, whereby the blood was collected from the abdominal cava with a vacuum blood-collecting tube. The blood collected was immediately centrifuged by 3000 rpm, at 4° C. for 10 minutes to isolate the serum. The ionized calcium (Ca^++) concentration in the serum was immediately measured with a Ca^++ meter (Sera 250, manufactured by Horiba Manufacturing Co.).
The compounds of the present invention were dissolved using sodium hydroxide and hydrochloric acid, in physiological saline (pH 7.4), for subcutaneous administration, in such amounts that the dose amounted to 2 ml/kg, and for oral administration, in distilled water (pH 7.4) so that the dose amounted to 5 ml/kg. They were administered 24 or 72 hours before the PTH injection. A physiological saline or a distilled water was administered to the normal control group and the control group, in the same manner. Salmon calcitonin (SCT, manufactured by Armour Co.) was dissolved in physiological saline so that the dose amounted to 2 ml/kg, and then subcutaneously administered 30 minutes before the PTH injection.
The results for each group were expressed in terms of mean±S.E. (standard error) and comparison was made among the groups by testing by one-way analysis of variance. The significance level was taken at 5%.

[2] = test system: immobilization-induced atrophy of bone; experiment: Inhibition of bone resorption: immobilization-induced (neurectomy) atrophy of bone in rats; type: in vivo, Wistar rats; conditions: for Left humerus Ashed weight / Left humerus Ashed weight / Dry weight / Left humerus Dry weight: 2 weeks; for Difference of Bone Ash Content (b): nontreated minus treated humerus ashed weight; for Difference of Bone Weight (a): nontreated minus treated humerus dry weight
adjuvant arthritis [3] = experiment: Experiment (3)-I: therapeutic effect on adjuvant arthritis in rats; type: in vivo, male Lewis rats
Protocol: (§1) Specifically, for investigation of the anti-arthritic effect, experimental models of adjuvant arthritis which is resemble to rheumatoid arthritis in human were used in two test methods. In one method to test the therapeutic effect of the compounds, the compounds to be tested were administered to the animals already having the adjuvant arthritis. In the other method to test the prophylactic effect of the compounds, these were administered after the adjuvant administration, and the expression and progress of the resulting arthritis, if any, was observed.
0.1 ml of a suspension of dry dead cells of Mycobacterium butyricum as suspended in liquid paraffin in a proportion of 6 mg/ml was subcutaneously injected to male Lewis rats (7-week) in the tail. After 17 or 18 days, the thickness of the both hind paws was measured. One group comprising six rats in which the arthritis was noticeably observed was isolated. After the grouping day, the compound to be tested was subcutaneously or orally administered once a day for 14 days to the rats. Next day after the last administration, the thickness of the soles of the both hind legs was again measured.
(§2) For the Experiments (3)-I and (3)-II, the compounds of the present invention were dissolved, using sodium hydroxide and hydrochloric acid in physiological saline (pH 7.4), for subcutaneous administration, in such amount that the dose amounted to 2 ml/kg, and for oral administration, in distilled water (pH 7.4) so that the dose amounted to 5 ml/kg; and indometacin (as comparative drug) was suspended in 0.5% methyl cellulose solution so that the dose amounted to 5 ml/kg. Each rat was weighed at the first day of starting the administration of the compound to be tested and at the last day of the administration of the compound, and the difference of the weight there between (ΔB.W.) was obtained.
(§3) The results for each group were expressed in terms of mean ±S.E. (standard error) and comparison was made among the groups by testing by one-way analysis of variance. The significance level was taken at 5%.

adjuvant arthritis [4] = experiment: Experiment (3)-II: prophylactic effect on adjuvant arthritis in rats; type: in vivo, male Lewis rats; conditions: sc; for Thickness of Paw, Left: adjuvant-injected paw; for Thickness of Paw, Right: opposite paw
Protocol: as §1
0.05 ml of the suspension of dry dead bacilli of Mycobacterium butyricum as suspended in liquid paraffin in a proportion of 6 mg/ml was subcutaneously injected to male Lewis rats (6 to 7-week) in the left hind paw. After the adjuvant injection, the compound to be tested was administered to the rats once a day for 21 days. Next day after the last administration, the thickness of the both hind paws of the rats was measured.
as §2, §3

[5] = Acute toxicity test in rats; type: in vivo; conditions: sc, 10 mg/kg/day for continuous two weeks
Protocol: The compound of Manufacture Example 1 was subcutaneously injected to rats in an amount of 10 mg/kg/day for continuous two weeks, and no rats died.

[6] = sc, 10 mg/kg once a day 14 days
[7] = po, 10 mg/kg once a day 14 days
[8] = po, 30 mg/kg once a day 14 days
[9] = po, 100 mg/kg once a day 14 days, 100 mg/kg
[10] = sc, 0.1 mg/kg once a day 14 days
[11] = sc, 0.3 mg/kg once a day 14 days
[12] = sc, 1.0 mg/kg once a day 14 days
[13] = sc, 3.0 mg/kg once a day 14 days

## Cc1cc(NC(P(=O)(O)O)P(=O)(O)O)no1 [Manufacture Example 1, [(5-methyl-3-isoxazolyl)amino]methylene-bis(phosphonic acid)]
[1]; oral, 30 mg/kg, 72 hours before PTH injection
  Serum Ca++: 1.48 ± 0.01 m mole/liter
[1]; oral, 100 mg/kg, 24 hours before PTH injection
  Serum Ca++: 1.44 ± 0.02 m mole/liter
[1]; oral, 100 mg/kg, 72 hours before PTH injection
  Serum Ca++: 1.16 ± 0.03 m mole/liter
[1]; oral, 300 mg/kg, 24 hours before PTH injection
  Serum Ca++: 1.41 ± 0.01 m mole/liter
[1]; sc, 0.3 mg/kg, 24 hours before PTH injection
  Serum Ca++: 1.43 ± 0.02 m mole/liter
[1]; sc, 1.0 mg/kg, 24 hours before PTH injection
  Serum Ca++: 1.40 ± 0.01 m mole/liter
[1]; sc, 3.0 mg/kg, 24 hours before PTH injection
  Serum Ca++: 1.36 ± 0.02 m mole/liter
[2]; oral, 10 mg/kg
  Left humerus Ashed weight: 54.9 ± 1.3 mg
  Left humerus Ashed weight / Dry weight: 53.4 ± 0.3%
  Left humerus Dry weight: 102.8 ± 2.2 mg
[2]; oral, 30 mg/kg
  Left humerus Ashed weight: 61.0 ± 1.0 mg
  Left humerus Ashed weight / Dry weight: 54.4 ± 0.3%
  Left humerus Dry weight: 112.1 ± 1.4 mg
[2]; oral, 100 mg/kg
  Left humerus Ashed weight: 68.9 ± 1.3 mg
  Left humerus Ashed weight / Dry weight: 55.6 ± 0.2%
  Left humerus Dry weight: 123.9 ± 2.3 mg
[2]; sc, 0.1 mg/kg
  Left humerus Ashed weight: 64.9 ± 1.2 mg
  Left humerus Ashed weight / Dry weight: 56.9 ± 0.1%
  Left humerus Dry weight: 113.9 ± 2.0 mg
[2]; sc, 0.3 mg/kg
  Left humerus Ashed weight: 65.4 ± 1.6 mg
  Left humerus Ashed weight / Dry weight: 57.2 ± 0.3%
  Left humerus Dry weight: 114.4 ± 2.6 mg
[2]; sc, 1.0 mg/kg
  Left humerus Ashed weight: 70.1 ± 1.1 mg
  Left humerus Ashed weight / Dry weight: 57.8 ± 0.4%
  Left humerus Dry weight: 121.3 ± 2.1 mg
[2]; sc, 3 mg/kg once a day 14 days
  Difference of Bone Ash Content (b): 4.8 ± 0.5 mg
  Difference of Bone Weight (a): 8.0 ± 1.0 mg
[2]; [6]
  Difference of Bone Ash Content (b): 1.7 ± 0.5 mg
  Difference of Bone Weight (a): 3.2 ± 0.7 mg
Adjuvant arthritis [3]; [7]
  Thickness of Paw (average of right and left paws): 1435 ± 49 × 0.01 mm
  ΔB.W.: 23.3 ± 0.9 g
Adjuvant arthritis [3]; [8]
  Thickness of Paw (average of right and left paws): 1296 ± 45 × 0.01 mm
  ΔB.W.: 32.8 ± 1.7 g
Adjuvant arthritis [3]; [9]
  Thickness of Paw (average of right and left paws): 1131 ± 36 × 0.01 mm and 1083 ± 36 × 0.01 mm
  ΔB.W.: 50 ± 3 g and 43.3 ± 2.0 g
Adjuvant arthritis [3]; [10]
  Thickness of Paw (average of right and left paws): 1258 ± 31 × 0.01 mm
  ΔB.W.: 40 ± 2 g
Adjuvant arthritis [3]; [11]
  Thickness of Paw (average of right and left paws): 1102 ± 36 × 0.01 mm
  ΔB.W.: 50 ± 2 g
Adjuvant arthritis [3]; [12]
  Thickness of Paw (average of right and left paws): 956 ± 36 × 0.01 mm
  ΔB.W.: 56 ± 4 g
Adjuvant arthritis [3]; [13]
  Thickness of Paw (average of right and left paws): 974 ± 32 × 0.01 mm
  ΔB.W.: 56 ± 1 g
Adjuvant arthritis [4]; 0.1 mg/kg once a day 21 days
  ΔB.W.: 238 ± 2 g
  Thickness of Paw, Left: 1277 ± 19 × 0.01 mm
  Thickness of Paw, Right: 1279 ± 27 × 0.01 mm
Adjuvant arthritis [4]; 0.3 mg/kg once a day 21 days
  ΔB.W.: 239 ± 2 g
  Thickness of Paw, Left: 1158 ± 12 × 0.01 mm
  Thickness of Paw, Right: 1107 ± 25 × 0.01 mm
Adjuvant arthritis [4]; 1.0 mg/kg once a day 21 days
  ΔB.W.: 233 ± 3 g
  Thickness of Paw, Left: 1174 ± 14 × 0.01 mm
  Thickness of Paw, Right: 1110 ± 28 × 0.01 mm
[5]
  mortality: no rats died
